Test results reported in patent US12030875B2, “EIF4E inhibitors and uses thereof” (PIC Therapeutics, Inc., priority 2018, dated 2024).

molecular target: T1, Human eIF4E (Homo sapiens, UniProt P06730); test: Human eIF4E/4G2 binding assay (TR-FRET); details: eIF4E (aa 28-217) with biotin labeled 4G2 peptide
T1 construct: Human eIF4E (aa 28-217) with a C-terminal His-tag; made in house
Experimental: Human eIF4E (aa 28-217) with a C-terminal His-tag was expressed in E. coli in inclusion bodies. The protein was solubilized with 8 M urea and purified under denaturing conditions using nickel-charged HisTrap HP columns (GE Healthcare). The purified protein was then refolded by diluting in 20 mM Hepes pH 7.0, 0.5 M NaCl, 1 mM DTT, 1 mM EDTA, 0.5 M arginine plus 6 M urea, and then dialyzing overnight into the same buffer without the urea. The protein was further dialyzed into 20 mM Hepes, pH 6.5, 50 mM NaCl, 1 mM EDTA, 1 mM DTT, and concentrated using Hitrap SP sepharose FF columns (GE Healthcare). The concentrated protein was dialyzed into 20 mM Hepes, pH 7.0, 0.5M NaCl, 5 mM DTT and 10% glycerol, and stored at −80° C. until use.
Test compounds (3.43 mM stock in DMSO) were diluted 2-fold in series in DMSO (10 concentration points). Compound solutions (1.2 μl/well) were added into black 384-well polypropylene microplates (Matrix, Thermal Scientific). Twenty-two microliters per well of Assay Buffer (50 mM NaPi, pH 6.5, 50 mM KCl, 1 mM DTT and 0.5 mg/ml gamma globulin) and eight microliters per well of 82.5 nM purified eIF4E in Assay Buffer were added. The samples were incubated at room temperature (20-23° C.) for 15 min. Biotin labeled 4G2 peptide (Ac-Lys-Gln-Tyr-Asp-Arg-Glu-Phe-Leu-Leu-Asp-Phe-Gln-Phe-Met-Pro-Lys(Aha-Bio)-NH2, 1.75 μM stock in DMSO) was diluted to 0.14 μM in Assay Buffer (without DTT) and 5 μl/well was added. The samples were incubated at room temperature for 15 min. Five microliters per well of 6.4 nM Eu-streptavidin (Eu-SA, Perkin Elmer) and 80 nM Allophycocyanin (APC)-anti His antibody (Columbia Biosciences) in Assay Buffer (without DTT) were then added and the samples were incubated at room temperature for 20 min.
Assay signals were monitored by reading excitation at 340 nm and emission fluorescence at 615 nm and 665 nm on an Envision reader (Perkin Elmer). Normalized TR-FRET (time-resolved fluorescence resonance energy transfer) assay signal (Rn) was calculated by the formula: Rn═[(A−Ba−C×D)/(D−Bd)]×(Dc−Bd) • Where A is the fluorescence intensity of the sample at 665 nm, • D is the fluorescence intensity of the sample at 615 nm, • Ba and Bd are plate backgrounds at 665 nm and 615 nm, respectively, • Dc is the fluorescence intensity of 0.78 nM Eu-SA in the assay buffer at 615 nm • The cross-talk factor (C) is determined by the following formula: C=(Ac−Ba)/(Dc−Bd) • Where Ac is the fluorescence intensity of 0.78 nM Eu-SA in the assay buffer at 665 nm.
IC50 values were calculated using xLFit program (IDBS).

T1 sequence (P06730 28-217): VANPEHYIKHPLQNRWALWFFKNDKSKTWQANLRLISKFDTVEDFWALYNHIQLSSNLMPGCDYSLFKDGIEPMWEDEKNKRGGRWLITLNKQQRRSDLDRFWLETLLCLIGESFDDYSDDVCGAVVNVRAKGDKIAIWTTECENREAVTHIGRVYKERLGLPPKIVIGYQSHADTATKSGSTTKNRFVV

SMILES | IC50 [µM]
O=C(O)CC1CCCN1c1nc(-c2ccc(-c3ccc(F)cc3)cc2)cs1 (centres unmarked) [Compound I-110] | > 25
O=C(O)CCc1nc(-c2ccc(-c3ccc(F)cc3)cc2)c(C(F)(F)F)s1 [Compound I-235, 3-(4-(4′-fluorobiphenyl-4-yl)-5-(trifluoromethyl)-thiazol-2-yl)-propanoic acid] | 5 to 25
CC1(C(=O)O)CN(c2nc(-c3ccc(-c4cnco4)cc3)c(-c3ccccc3)s2)C1 [Compound I-13] | > 25
O=C(O)C1CCN(c2nc(-c3ccc(Oc4ccccc4)cc3)c(-c3ccccc3)s2)CC1 [Compound I-209] | < 5
O=C(O)CC1CCCN1c1nc(-c2ccc(-c3ccc(F)cc3)cc2)c(-c2cccc3[nH]ccc23)s1 (centres unmarked) [Compound I-114] | < 5
O=C(O)CC1CCCN1c1nc(-c2ccc(Oc3ccccc3)cc2)c(-c2cccc3[nH]ccc23)s1 (centres unmarked) [Compound I-189] | 5 to 25
O=C(O)C1(CNc2nc(-c3ccc(Oc4ccccc4)cc3)c(-c3cccnc3)s2)CC1 [Compound I-198] | > 25
CC1(C(=O)O)CN(c2nc(-c3ccc(-c4ccc(F)cc4)cc3)c(Br)s2)C1 [Compound I-82] | 5 to 25
O=C(O)[C@@H]1CCCN(c2nc(-c3ccc(Oc4ccccc4)cc3)c(-c3ccccc3)s2)C1 [Compound I-227] | < 5
O=C(O)C1CC(CNc2nc(-c3ccc(-c4ccc(F)cc4)cc3)c(Br)s2)C1 (centres unmarked) [Compound I-127] | 5 to 25
O=C(O)C1CN(c2nc(-c3ccc(-c4ccc(F)cc4)cc3)c(-c3cccnc3)s2)CCO1 (centres unmarked) [Compound I-142] | > 25
CC(C)C(CC(=O)O)Nc1nc(-c2ccc(-c3ccc(F)cc3)cc2)c(Br)s1 (centres unmarked) [Compound I-65] | 5 to 25
CCCC(CNc1nc(-c2ccc(Oc3ccccc3)cc2)cs1)C(=O)O (centres unmarked) [Compound I-167] | > 25
O=C(O)C1(CNc2nc(-c3ccc(-c4ccc(F)cc4)cc3)c(-c3cccc4[nH]ccc34)s2)CC1 [Compound I-125] | < 5
CC(C)[C@@H](CC(=O)O)Nc1nc(-c2ccc(-c3ccc(F)cc3)cc2)c(Br)s1 [Compound I-221] | < 5
CCCC(CNc1nc(-c2ccc(-c3ccc(F)cc3)cc2)c(-c2cncnc2)s1)C(=O)O (centres unmarked) [Compound I-90] | > 25
CC(C)C(CC(=O)O)Nc1nc(-c2ccc(-c3ccc(F)cc3)cc2)c(-c2cccc3[nH]ccc23)s1 (centres unmarked) [Compound I-69] | 5 to 25
O=C(O)C1CCCN(c2nc(-c3ccc(Oc4ccccc4)cc3)c(-c3ccccc3)s2)C1 (centres unmarked) [Compound I-182] | < 5
O=C(O)C1CCN(c2nc(-c3ccc(Oc4ccccc4)cc3)c(-c3cncnc3)s2)CC1 [Compound I-210] | > 25

SMILES | IC50 [µM]
O=C(O)C1CCN(c2nc(-c3ccc(Oc4ccccc4)cc3)c(-c3cccnc3)s2)CC1 [Compound I-211] | > 25
CC(CC(=O)O)Nc1nc(-c2ccc(-c3ccc(F)cc3)cc2)c(Br)s1 (centres unmarked) [Compound I-94] | 5 to 25
O=C(O)C1CCN(c2nc(-c3ccc(Oc4ccccc4)cc3)c(-c3cccc4[nH]ccc34)s2)CC1 [Compound I-212] | 5 to 25
O=C(O)C1CN(c2nc(-c3ccc(Oc4ccccc4)cc3)c(-c3cccc4[nH]ccc34)s2)CCO1 (centres unmarked) [Compound I-216] | > 25
CC(CNc1nc(-c2ccc(-c3cnco3)cc2)cs1)C(=O)O (centres unmarked) [Compound I-26] | > 25
O=C(O)C1CCCN(c2nc(-c3ccc(Oc4ccccc4)cc3)c(-c3cccc4[nH]ccc34)s2)C1 (centres unmarked) [Compound I-185] | < 5
CC(CC(=O)O)Nc1nc(-c2ccc(-c3cnco3)cc2)c(-c2cccnc2)s1 (centres unmarked) [Compound I-24] | > 25
O=C(O)CC1CCCN1c1nc(-c2ccc(-c3cnco3)cc2)c(-c2cccc3[nH]ccc23)s1 (centres unmarked) [Compound I-39] | > 25
O=C(O)C1CCN(c2nc(-c3ccc(-c4ccc(F)cc4)cc3)c(-c3cncnc3)s2)C1 (centres unmarked) [Compound I-117] | > 25
CC1(C(=O)O)CCCN(c2nc(-c3ccc(Oc4ccccc4)cc3)c(-c3cccc4[nH]ccc34)s2)C1 (centres unmarked) [Compound I-220] | < 5
O=C(O)C1(CNc2nc(-c3ccc(-c4ccc(F)cc4)cc3)c(-c3cccnc3)s2)CC1 [Compound I-124] | > 25
CCCC(CNc1nc(-c2ccc(-c3ccc(F)cc3)cc2)cs1)C(=O)O (centres unmarked) [Compound I-87] | > 25
CC1(C(=O)O)CN(c2nc(-c3ccc(Oc4ccccc4)cc3)c(-c3cccnc3)s2)C1 [Compound I-165] | > 25
O=C(O)C1CCCN(c2nc(-c3ccc(-c4ccc(F)cc4)cc3)cs2)C1 (centres unmarked) [Compound I-105] | 5 to 25
CC(C)C(CC(=O)O)Nc1nc(-c2ccc(Oc3ccccc3)cc2)cs1 (centres unmarked) [Compound I-148] | > 25
CC1(C(=O)O)CN(c2nc(-c3ccc(-c4cnco4)cc3)c(-c3cccnc3)s2)C1 [Compound I-15] | > 25
O=C(O)C1CCN(c2nc(-c3ccc(Oc4ccccc4)cc3)c(-c3ccccc3)s2)C1 (centres unmarked) [Compound I-191] | < 5
CC1(C(=O)O)CCCN(c2nc(-c3ccc(-c4cnco4)cc3)c(-c3cncnc3)s2)C1 (centres unmarked) [Compound I-61] | > 25
CC(CNc1nc(-c2ccc(-c3ccc(F)cc3)cc2)c(Br)s1)C(=O)O (centres unmarked) [Compound I-100] | 5 to 25

The remaining lines, values ahead:

IC50 [µM] | SMILES
< 5 | O=C(O)C1CN(c2nc(-c3ccc(Oc4ccccc4)cc3)c(-c3ccccc3)s2)CCO1 (centres unmarked) [Compound I-213]
5 to 25 | O=C(O)C1CC(CNc2nc(-c3ccc(-c4ccc(F)cc4)cc3)c(-c3cccc4[nH]ccc34)s2)C1 (centres unmarked) [Compound I-131]
< 5 | O=C(O)C1CCCN(c2nc(-c3ccc(-c4ccc(F)cc4)cc3)c(C3CC3)s2)C1 (centres unmarked) [Compound I-232]
> 25 | O=C(O)C1(CNc2nc(-c3ccc(Oc4ccccc4)cc3)c(-c3cncnc3)s2)CC1 [Compound I-197]
> 25 | CC(CC(=O)O)Nc1nc(-c2ccc(-c3cnco3)cc2)c(-c2cccc3[nH]ccc23)s1 (centres unmarked) [Compound I-25]
< 5 | O=C(O)C1COCCN1c1nc(-c2ccc(-c3ccc(F)cc3)cc2)c(-c2ccccc2)s1 (centres unmarked) [Compound I-231]
> 25 | O=C(O)CC1CCCN1c1nc(-c2ccc(-c3cnco3)cc2)c(-c2cncnc2)s1 (centres unmarked) [Compound I-37]
> 25 | CCCC(CNc1nc(-c2cccnc2)c(-c2ccc(-c3cnco3)cc2)s1)C(=O)O (centres unmarked) [Compound I-20]
5 to 25 | CC(CC(=O)O)Nc1nc(-c2ccc(Oc3ccccc3)cc2)c(-c2ccccc2)s1 (centres unmarked) [Compound I-172]
> 25 | CC1(C(=O)O)CN(c2nc(-c3ccc(Oc4ccccc4)cc3)cs2)C1 [Compound I-162]
> 25 | CC(CNc1nc(-c2ccc(-c3ccc(F)cc3)cc2)c(-c2cccnc2)s1)C(=O)O (centres unmarked) [Compound I-103]
5 to 25 | CC(CC(=O)O)Nc1nc(-c2ccc(-c3ccc(F)cc3)cc2)c(-c2ccccc2)s1 (centres unmarked) [Compound I-95]
> 25 | CCCC(CNc1nc(-c2ccc(-c3ccc(F)cc3)cc2)c(-c2cccnc2)s1)C(=O)O (centres unmarked) [Compound I-91]
> 25 | CC(CNc1nc(-c2ccc(Oc3ccccc3)cc2)c(-c2cccnc2)s1)C(=O)O (centres unmarked) [Compound I-179]
< 5 | CC(C)(CNc1nc(-c2ccc(-c3ccc(F)cc3)cc2)c(-c2ccccc2)s1)C(=O)O [Compound I-72]
> 25 | O=C(O)C1CCN(c2nc(-c3ccc(Oc4ccccc4)cc3)cs2)C1 (centres unmarked) [Compound I-190]
> 25 | O=C(O)C1CCCN(c2nc(-c3ccc(-c4cnco4)cc3)c(-c3cccc4[nH]ccc34)s2)C1 (centres unmarked) [Compound I-34]
> 25 | O=C(O)C1CCCN(c2nc(-c3ccc(Oc4ccccc4)cc3)cs2)C1 (centres unmarked) [Compound I-181]
> 25 | O=C(O)C1CCN(c2nc(-c3ccc(-c4cnco4)cc3)c(-c3ccccc3)s2)CC1 [Compound I-52]
> 25 | O=C(O)C1CCN(c2nc(-c3ccc(-c4cnco4)cc3)c(-c3cccnc3)s2)CC1 [Compound I-54]
5 to 25 | O=C(O)C1CCN(c2nc(-c3ccc(-c4ccc(F)cc4)cc3)c(-c3cccc4[nH]ccc34)s2)CC1 [Compound I-139]
